Experiments:
5-HT1A receptor = biological target: T1, 5-HT1A receptor (Homo sapiens, UniProt P08908); assay: cAMP-Glo assay in +5-HT1A vs −5-HT1A CHO-K1 cells; assay type: cell-based; conditions: cAMP assay with 4 mM forskolin
T1 construct: host or cells: CHO-K1 (co-expressing Ga15)
T1 sequence (P08908 1-422): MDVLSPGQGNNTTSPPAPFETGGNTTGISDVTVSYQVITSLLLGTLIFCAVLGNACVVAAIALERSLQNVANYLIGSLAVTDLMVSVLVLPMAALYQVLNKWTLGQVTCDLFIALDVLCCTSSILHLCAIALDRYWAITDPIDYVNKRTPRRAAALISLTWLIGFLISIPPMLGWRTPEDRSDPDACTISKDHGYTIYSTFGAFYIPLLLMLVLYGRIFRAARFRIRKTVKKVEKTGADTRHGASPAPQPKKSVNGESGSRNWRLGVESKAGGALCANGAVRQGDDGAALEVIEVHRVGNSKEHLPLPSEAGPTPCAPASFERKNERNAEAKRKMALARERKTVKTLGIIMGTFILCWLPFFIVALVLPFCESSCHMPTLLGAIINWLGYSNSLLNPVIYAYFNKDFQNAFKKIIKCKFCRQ

CNR1 = CNR1 (Homo sapiens, UniProt P21554); assay: EFC-based cAMP secondary messenger assay, agonist mode; assay type: cell-based
Chain of CNR1 (P21554 whole entry): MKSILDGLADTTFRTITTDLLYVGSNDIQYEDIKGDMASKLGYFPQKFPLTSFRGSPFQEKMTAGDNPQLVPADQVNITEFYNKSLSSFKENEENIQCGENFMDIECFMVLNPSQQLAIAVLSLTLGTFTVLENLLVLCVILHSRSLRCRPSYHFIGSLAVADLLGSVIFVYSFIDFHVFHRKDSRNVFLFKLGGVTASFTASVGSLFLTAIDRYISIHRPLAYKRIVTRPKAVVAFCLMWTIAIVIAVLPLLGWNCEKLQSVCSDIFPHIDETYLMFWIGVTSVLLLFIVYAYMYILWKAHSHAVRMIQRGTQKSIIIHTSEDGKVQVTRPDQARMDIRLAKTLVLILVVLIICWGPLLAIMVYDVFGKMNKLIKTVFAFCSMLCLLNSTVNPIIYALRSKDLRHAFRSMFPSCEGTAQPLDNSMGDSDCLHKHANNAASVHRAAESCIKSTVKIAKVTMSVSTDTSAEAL

[1] = Dosing solution concentration by LC-MS (measured vs nominal); assay type: physicochemical; conditions: C(IV) nominal 0.1 mg/mL
Experimental: Briefly, the procedure was as follows. […] 19, 2022.
Pharmacokinetic (PK) evaluations were performed in the same manner as described in Example 1, except compound C(IV) was used in place of compound C(V). […] Thus, only psilocin PK analysis was performed. […] Table 46 summarizes these “measured” concentrations along with corresponding “nominal” concentrations for each dosing solution. Results for psilocin PK following C(IV) administration are found in Tables 47A-47B (0.293 mg/kg IV dose), Tables 48A-48B (0.275 mg/kg oral dose), Tables 49A-49B (0.789 mg/kg oral dose), Tables 50A-50B (2.52 mg/kg oral dose), Table 51 (comparative summary for IV data), Table 52 (comparative summary for oral data), Table 53A (psilocin exposure) and FIGS. 10H (i) and 10H (ii).

Compound | 5-HT1A receptor modulation, +5-HT1A vs −5-HT1A cultures (5-HT1A receptor) | EC50 (CNR1) [µM] | Psilocin, measured, in C(IV) residual dosing solution [1] [mg/mL]
CN(C)CCc1c[nH]c2cccc(OC(=O)c3c(F)c(F)c(F)c(F)c3F)c12 [C(VI)] | no receptor modulation at higher ligand concentrations | 62.9 | –
CN(C)CCc1c[nH]c2cccc(OC(=O)c3ccc(Br)cc3)c12 [C(I)] | mild receptor modulation at higher ligand concentrations | 54.2 | –
CN(C)CCc1c[nH]c2cccc(OC(=O)c3cccc4c3OCCO4)c12 [C(XX)] | significant receptor modulation | > 100 | –
CN(C)CCc1c[nH]c2cccc(OC(=O)CC3CC3)c12 [C(IV)] | significant receptor modulation | > 100 | 0.00174
COc1ccc(C(=O)Oc2cccc3[nH]cc(CCN(C)C)c23)cc1 [C(V)] | mild receptor modulation at higher ligand concentrations | > 100 | –

Source: patent US11746087B1, “C4-carboxylic acid-substituted tryptamine derivatives and methods of using” (priority 2022, dated 2023)
